This note sets out measurements from article PMC3871529, “At a Supra-Physiological Concentration, Human Sexual Hormones Act as Quorum-Sensing Inhibitors” (PLoS ONE, 2013).

Data set [1] relates to Agrobacterium biosensor cells. Nature of the data set: Minimal inhibitory concentration (MIC). It is filed as cell-based, Agrobacterium tumefaciens. The following applies: Agrobacterium; 10^5 CFU/ml, 36 h at 30°C; read-out: MIC. The procedure: (§1) Aside from the effect of QSI on QS regulation, the toxicity of these compounds was tested on bacterial cells by measuring two parameters: the minimal inhibitory concentration (MIC) and minimal bactericidal concentration (MBC). MIC, which is the lowest concentration of QSI (µg/ml) inhibiting any visible culture after 36 h of incubation at 30°C, was estimated by culturing 10^5 CFU/ml of the Agrobacterium biosensor cells in the presence of different concentrations of the QSI. MBC, which is the lowest concentration of QSI (µg/ml) that results in a 99.9% reduction of the initial bacterial population (10^5 CFU/ml) after 36 h of incubation at 30°C in the presence of different concentrations of QSI, was estimated by plating 100 µL of the Agrobacterium cultures on agar LBm plates. After an incubation of 48 h at 30°C, CFU were counted and the MBC values were calculated.

Data set [2] has as its system Agrobacterium biosensor cells. Nature of the data set: Minimal bactericidal concentration (MBC). The following applies: Agrobacterium; 99.9% reduction of 10^5 CFU/ml after 36 h at 30°C; read-out: MBC. It is filed as cell-based, Agrobacterium tumefaciens. How it is done:
as §1

The test system of the next data set is P. aeruginosa. Nature of the data set: Growth kinetics of P. aeruginosa in the presence of QSIs. It counts as cell-based, Pseudomonas aeruginosa. The following applies: QSI at 0.5 mg/ml, OD600 and CFU at 8 and 18 hour. The procedure:
(§2) Figure 5 QSIs modulated QS-signal accumulation in P. aeruginosa. Growth kinetics (n = 6) of P. aeruginosa was measured (OD600) in the presence of the QSIs (estradiol, estrone, estriol, hordenine and 4-NPO) at 0.5 mg/ml using DMSO as a negative control. Cell counts were assessed (CFU/ml) at 8- and 18-hour, and C4-HSL and OC12-HSL concentration (µM) were determined in the bacterial cultures at 18-hour. Statistically different values (Student's t test with α = 0.01) are noted by asterisks.
(§3) QS gene transcription in P. aeruginosa PAO1 was monitored using PAO1 strains carrying various gene promoters fused to a lacZ reporter gene, as described in Vandeputte et al., 2010 and Table 1. PAO1 reporter strains were prepared according to Vandeputte et al.. Briefly, 18-hours-old liquid cultures (50 µl) were diluted in order to obtain a starting OD600 nm comprised between 0.02 and 0.03 in fresh LB medium supplemented with 50 mM MOPS pH 7.0 (1 ml), carbenicillin (300 µg/ml) and 10 µl of the QSIs to be tested (OD were measured using a SpectraMax M2 device from Molecular Devices). Test and control QSIs were diluted in 100% DMSO (resulting after addition to the growth medium in a 1% final concentration of DMSO). Cultures were incubated for 18 hours at 37°C with agitation. After incubation, cell densities were assessed spectrophotometrically (OD600 nm) and β-galactosidase assays were performed using the substrate o-nitrophenyl-β-D-galactopyranoside as described previously, [29]. Promoterless-lacZ fusions were used as controls. AHLs were quantified as described in Vandeputte et al.. All tests were performed in quintuplicates and three biological repetitions. The statistical significance of each test was evaluated by conducting Student's t tests and two-way ANOVA combined with the Tukey post-analysis test using the GraphPad Prism software and p values≤0.01 were considered significant.

Data set [3] relates to QS-signal accumulation in P. aeruginosa. Nature of the data set: AHL (C4-HSL, OC12-HSL) quantification in P. aeruginosa cultures by mass spectrometry. It is filed as cell-based, Pseudomonas aeruginosa. As to conditions: QSI at 0.5 mg/ml, 18-hour. The procedure: as §2, §3
The test system of data set [4] is QS-regulated genes lasI, lasR, lasB, rhlI, rhlR, rhlA in P. aeruginosa PAO1. Nature of the data set: QS-regulated gene expression, lacZ transcriptional fusions in PAO1. It is filed as cell-based, Pseudomonas aeruginosa. As to conditions: QSI at 0.5 mg/ml, 18 hours at 37°C, β-galactosidase. How it is done:
Figure 6 QSIs modulated QS-regulated genes in P. aeruginosa. The β-galactosidase (b-Gal) activity in Miller unit (MU) of the transcriptional fusions lasI-lacZ (A), lasR-lacZ (B), lasB-lacZ (C), rhlI-lacZ (D), rhlR-lacZ (E), rhlA-lacZ (F), and aecA-lacZ(G) were measured in the presence of estradiol, estrone, estriol, hordenine at 0.5 mg/ml, and naringenin at 1 mg/ml as a positive control and DMSO as a negative control. The statistical significance of each test (n = 5 and three biological replicates) was evaluated by Student's t test (i.e. each test was compared with the DMSO condition). Asterisks indicate statistically different data (p value of ≤0.01).
as §3

In the next data set the target is T1, LasR (Pseudomonas aeruginosa, UniProt P25084).
T1 construct: expressed in transfected cells; host or cells: Escherichia coli JLD271 carrying pAL105 (pSB401-derivative, lasR+ lasI::luxCDABE)
Nature of the data set: E. coli bioindicator expressing LasR (pAL105, lasI::luxCDABE luminescence). It is filed as cell-based. As to conditions: OC12-HSL 100 µM; QSIs at 0.1 mg/ml, naringenin and naringin at 0.5 mg/ml. How it is done:
(§4) We determined whether the AHL-binding transcriptional factors LasR and RhlR were impaired in their capacity to activate expression of the QS-regulated genes in the presence of various QSIs. This was achieved by using two E. coli bioindicator strains expressing either LasR or RhlR proteins and harboring an appropriate reporter lux operon for measuring their transcriptional activity in the presence of OC12-HSL at 100 µM and C4-HSL at 10 µM, respectively. Adding C4-HSL to the pAL101-bioindicator or OC12-HSL to the pAL105-bioindicator induced the expression of the reporter lux operon and the consequent production of luminescence. In contrast, only background levels of luminescence were detected in control strains harboring the plasmids pAL102 or pAL106, which lacks the rhlR or lasR gene, respectively.
(§5) Figure 7 QSIs modulated activity of the AHL-sensors in P. aeruginosa. Luminescence of the reporting operon lux, expressed in relative light units (RLU/OD600), was measured in E. coli bioindicator strains harboring the LasR (A) and RhlR (B) AHL-sensing systems of P. aeruginosa in the presence of […]. The QSIs estradiol, estrone, estriol and hordenine were added at 0.1 mg/ml, while naringenin and naringin, added at 0.5 mg/ml, were used as QSI-reference and non-QSI reference, respectively. Each test (n = 6) was compared with the DMSO-condition using Student's t test. Asterisks indicate statistically different data (p value of ≤0.01).
(§6) Escherichia coli JLD271 biosensor strains harboring LasR- and RhlR-based plasmids pAL105 and pAL101 and control plasmids pAL106 (LasR^-) and pAL102 (RhlR^−) (Table 1) were prepared according to Vandeputte et al.. Briefly, these strains were grown in LB medium supplemented with tetracycline (10 µg/ml) and chloramphenicol (25 µg/ml) for 24 h. Then 50-µl portions of the cultures were subcultured in 1 ml of LB medium (the starting OD600 ranged between 0.02 and 0.025 corresponding to 5.10^6 CFU) supplemented with 10 µl of DMSO (1% [vol/vol] final), 10 µl of naringenin or naringin dissolved in DMSO (2 mM, final concentration), or 10 µl of the molecule to be tested. To induce the expression of the lux operon, 0, 1, 10 or […] of C4-HSL was added to pAL101 and pAL102, while OC12-HSL was added to pAL105 and pAL106. After incubation for 2 h at 37°C with agitation (175 rpm), 200 µl of culture was transferred to 96-well OptiPlate-96 F plates from Perkin-Elmer, and the luminescence of each sample was measured by using a TopCount NXT device from Perkin-Elmer. The LasR(pAL106) and RhlR(pAL102) biosensors were used for background subtraction, and the OD600 values were measured to account for the differences in cell density. All experiments were performed in six replicates. The statistical significance of each test was evaluated by conducting Student's t tests using the GraphPad Prism software, and p values ≤0.05 were considered significant. Naringenin (4′,5,7-trihydroxyflavanone), naringin (4′,5,7-trihydroxyflavanone 7-rhamnoglucoside), the AHLs OC12-HSL and C4-HSL were purchased from Sigma-Aldrich and dissolved freshly in 100% DMSO before use. Tested QSIs were dissolved in 100% DMSO before use.

A further data set has as its target T2, RhlR (Pseudomonas aeruginosa, UniProt P54292).
T2 construct: expressed in transfected cells; host or cells: Escherichia coli JLD271 carrying pAL101 (pSB401-derivative, rhlR+ rhlI::luxCDABE)
Nature of the data set: E. coli bioindicator expressing RhlR (pAL101, rhlI::luxCDABE luminescence). The following applies: C4-HSL 10 µM; QSIs at 0.1 mg/ml, naringenin and naringin at 0.5 mg/ml. It is filed as cell-based. How it is done: as §4, §5, §6

T1 sequence (P25084 whole entry): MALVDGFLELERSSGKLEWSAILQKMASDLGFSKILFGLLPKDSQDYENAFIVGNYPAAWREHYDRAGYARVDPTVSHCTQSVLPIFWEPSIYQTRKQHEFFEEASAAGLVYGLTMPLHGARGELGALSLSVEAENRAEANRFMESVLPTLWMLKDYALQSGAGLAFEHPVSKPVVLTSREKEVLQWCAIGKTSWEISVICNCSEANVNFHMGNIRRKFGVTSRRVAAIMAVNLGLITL
T2 sequence (P54292 whole entry): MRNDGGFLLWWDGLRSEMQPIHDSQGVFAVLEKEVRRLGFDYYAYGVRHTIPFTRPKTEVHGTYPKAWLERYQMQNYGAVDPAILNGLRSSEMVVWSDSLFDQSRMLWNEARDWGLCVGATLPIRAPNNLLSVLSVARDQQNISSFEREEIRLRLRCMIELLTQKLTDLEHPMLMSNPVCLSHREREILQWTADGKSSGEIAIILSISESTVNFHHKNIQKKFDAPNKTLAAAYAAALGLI

As usually defined, the MIC is the lowest concentration found to suppress growth. Broadly, the MBC is the lowest tested concentration that kills the bacteria rather than only halting them. For the compound `C[C@]12CC[C@@H]3c4ccc(O)cc4CC[C@H]3[C@@H]1CC[C@@H]2O` [Estradiol, estradiol], in data set [1], the minimal inhibitory concentration (MIC) is greater than 100 µg/mL. Moreover, the minimum bactericidal concentration (MBC) in data set [2] is greater than 100 µg/mL. Further, in the data set with P. aeruginosa, the “effect on growth of P. aeruginosa” value was “did not affect the growth”. Further, in data set [3], the “C4-HSL concentration in cell cultures” value is “reduction” and the “OC12-HSL concentration in cell cultures” value is recorded as “reduction”. Moreover, in data set [4], the “expression of six QS-regulated genes (lasI, lasR, lasB, rhlI, rhlR, rhlA)” value is “decreased”. For the same compound, the “effect on LasR functionality (lux luminescence)” value (“effect on LasR functionality” for short) at LasR is “affected LasR functionality”.

Turning to `O=C1CC(c2ccc(O)cc2)Oc2cc(O)cc(O)c21` (centres unmarked) [naringenin, 4′,5,7-trihydroxyflavanone], the “effect on LasR functionality” value on LasR was “less luminescence”. Besides, the “effect on RhlR functionality (lux luminescence)” value at RhlR was “less luminescence”.

Regarding `C[C@@H]1O[C@@H](O[C@H]2[C@H](Oc3cc(O)c4c(c3)O[C@H](c3ccc(O)cc3)CC4=O)O[C@H](CO)[C@@H](O)[C@@H]2O)[C@H](O)[C@H](O)[C@H]1O` [naringin, 4′,5,7-trihydroxyflavanone 7-rhamnoglucoside], the “effect on LasR functionality” value at LasR was “no effect”. Also, the “effect on RhlR functionality (lux luminescence)” value at RhlR is listed as “no effect”.
